According to ChEMBL document CHEMBL1201862, “PubChem BioAssay data set” (2004):
One block for each molecule: values may come before it. Calls of active or inactive are those of the source.

Experiments:
Ion channel NompC = Ion channel NompC (Danio rerio, UniProt Q7T1G6); experiment: Dose response cell-based high-throughput screening assay for agonists of the transient receptor potential channel N1 (TRPN1). [Related pubchem assays (depositor defined):AID1424, AID1448]; assay type: functional
Mucolipin-3 = Mucolipin-3 (Homo sapiens, UniProt Q8TDD5); experiment: Fluorescence counterscreen assay for […] agonists: dose response cell-based high-throughput screening assay to identify agonists of the transient receptor potential channel ML3 (TRPML3). [Related pubchem assays: 1424, 1448 ]; assay type: functional
Sequence of Mucolipin-3 (Q8TDD5 whole entry): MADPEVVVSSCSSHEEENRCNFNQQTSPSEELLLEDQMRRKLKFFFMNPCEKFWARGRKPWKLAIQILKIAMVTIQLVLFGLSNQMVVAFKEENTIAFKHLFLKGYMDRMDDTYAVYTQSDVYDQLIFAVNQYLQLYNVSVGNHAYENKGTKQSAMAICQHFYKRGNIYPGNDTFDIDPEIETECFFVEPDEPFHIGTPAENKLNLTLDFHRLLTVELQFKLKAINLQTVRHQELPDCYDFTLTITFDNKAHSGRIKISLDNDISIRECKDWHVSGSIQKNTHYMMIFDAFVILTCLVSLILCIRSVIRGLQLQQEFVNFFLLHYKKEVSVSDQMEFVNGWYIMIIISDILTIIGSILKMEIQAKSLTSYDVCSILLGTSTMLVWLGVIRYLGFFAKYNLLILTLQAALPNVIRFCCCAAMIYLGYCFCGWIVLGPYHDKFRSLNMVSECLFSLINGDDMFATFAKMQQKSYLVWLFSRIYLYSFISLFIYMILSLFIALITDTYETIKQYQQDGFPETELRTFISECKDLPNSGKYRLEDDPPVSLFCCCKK

[1] = HEK-293T viability loss after treatment – luminescence, T-cell screen hits, cytotoxicity control for TCR NF-kB inhibitor project, dose response (AID 489026); assay type: functional, cell-based;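 also: cells exposed to compound about 14 hours before the viability readout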
[2] = target: Lysine-specific demethylase 4A (Homo sapiens, UniProt O75164); experiment: inhibition of JMJD2A H3K9me3 demethylation – biochemical, DELFIA europium, cherry-picked samples, selectivity assay for GASC-1 inhibitor project, dose response (AID 488840)
Sequence of Lysine-specific demethylase 4A (O75164 whole entry, the tested form may be a part): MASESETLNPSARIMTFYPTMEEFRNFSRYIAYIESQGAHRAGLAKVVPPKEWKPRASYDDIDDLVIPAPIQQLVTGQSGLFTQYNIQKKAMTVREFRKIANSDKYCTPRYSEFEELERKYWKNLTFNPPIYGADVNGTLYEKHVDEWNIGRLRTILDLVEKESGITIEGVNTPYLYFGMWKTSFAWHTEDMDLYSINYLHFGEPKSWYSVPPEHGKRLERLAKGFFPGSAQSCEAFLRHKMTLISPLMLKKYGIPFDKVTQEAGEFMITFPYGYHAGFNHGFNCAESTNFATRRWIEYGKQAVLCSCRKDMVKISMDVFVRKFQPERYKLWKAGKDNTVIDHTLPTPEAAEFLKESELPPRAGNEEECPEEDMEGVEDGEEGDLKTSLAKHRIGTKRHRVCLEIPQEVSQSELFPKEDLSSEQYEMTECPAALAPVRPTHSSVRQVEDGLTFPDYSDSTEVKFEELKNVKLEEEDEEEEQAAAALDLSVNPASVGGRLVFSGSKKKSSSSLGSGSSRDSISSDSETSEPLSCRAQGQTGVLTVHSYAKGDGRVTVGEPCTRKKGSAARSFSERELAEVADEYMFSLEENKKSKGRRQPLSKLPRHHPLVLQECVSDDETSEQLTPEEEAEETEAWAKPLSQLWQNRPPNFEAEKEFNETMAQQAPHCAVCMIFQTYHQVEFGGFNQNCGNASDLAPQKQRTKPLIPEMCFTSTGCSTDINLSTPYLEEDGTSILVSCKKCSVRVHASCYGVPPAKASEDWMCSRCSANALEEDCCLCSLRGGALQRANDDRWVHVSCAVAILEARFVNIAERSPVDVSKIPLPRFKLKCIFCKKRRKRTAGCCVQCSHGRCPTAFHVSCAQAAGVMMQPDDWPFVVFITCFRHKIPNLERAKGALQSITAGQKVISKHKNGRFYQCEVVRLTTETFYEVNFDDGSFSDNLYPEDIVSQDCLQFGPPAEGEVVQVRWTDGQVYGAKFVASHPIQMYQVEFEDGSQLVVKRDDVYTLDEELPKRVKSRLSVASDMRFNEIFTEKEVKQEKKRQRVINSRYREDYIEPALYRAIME

[3] = target: T1, Runt-related transcription factor 1/Core-binding factor subunit beta (Homo sapiens, UniProt Q01196+Q13951); experiment: disruptors of Runt domain/CBFb-SMMHC interaction – biochemical, FRET, Cerulean-Runt, Venus-CBFb-SMMHC, uHTS, […] (AID 1434); assay type: protein assay
T1 sequence (Q01196 whole entry, the tested form may be a part): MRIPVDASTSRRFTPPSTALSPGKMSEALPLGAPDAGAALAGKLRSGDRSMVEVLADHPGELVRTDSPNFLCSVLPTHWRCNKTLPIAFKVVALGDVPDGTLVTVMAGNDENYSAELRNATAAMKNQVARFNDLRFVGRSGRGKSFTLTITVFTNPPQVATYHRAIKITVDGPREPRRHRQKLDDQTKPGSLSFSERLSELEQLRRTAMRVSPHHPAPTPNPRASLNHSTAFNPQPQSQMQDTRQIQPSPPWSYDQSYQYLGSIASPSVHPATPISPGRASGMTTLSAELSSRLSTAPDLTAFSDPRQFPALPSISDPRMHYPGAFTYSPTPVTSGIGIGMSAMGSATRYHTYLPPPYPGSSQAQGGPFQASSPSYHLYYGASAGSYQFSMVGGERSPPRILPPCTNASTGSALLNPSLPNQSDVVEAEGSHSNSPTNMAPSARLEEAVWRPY
T1 sequence (Q13951 whole entry, the tested form may be a part): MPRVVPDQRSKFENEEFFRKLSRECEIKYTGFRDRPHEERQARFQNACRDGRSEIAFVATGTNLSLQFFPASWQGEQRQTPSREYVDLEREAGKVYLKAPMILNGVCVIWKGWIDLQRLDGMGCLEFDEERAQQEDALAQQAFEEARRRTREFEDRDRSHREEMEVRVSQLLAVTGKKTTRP

[4] = target: T1, Runt-related transcription factor 1/Core-binding factor subunit beta; experiment: Runt domain/CBFb-SMMHC interaction disruptors – biochemical, TR-FRET (AID 1438); assay type: protein assay
Hexokinase HKDC1 = target: T2, Hexokinase HKDC1 (Homo sapiens, UniProt Q2TB90); experiment: inhibition of HKDC1 glucose phosphorylation – biochemical, W721R variant, dose response (AID 504729); assay type: functional
T2 sequence (Q2TB90 whole entry): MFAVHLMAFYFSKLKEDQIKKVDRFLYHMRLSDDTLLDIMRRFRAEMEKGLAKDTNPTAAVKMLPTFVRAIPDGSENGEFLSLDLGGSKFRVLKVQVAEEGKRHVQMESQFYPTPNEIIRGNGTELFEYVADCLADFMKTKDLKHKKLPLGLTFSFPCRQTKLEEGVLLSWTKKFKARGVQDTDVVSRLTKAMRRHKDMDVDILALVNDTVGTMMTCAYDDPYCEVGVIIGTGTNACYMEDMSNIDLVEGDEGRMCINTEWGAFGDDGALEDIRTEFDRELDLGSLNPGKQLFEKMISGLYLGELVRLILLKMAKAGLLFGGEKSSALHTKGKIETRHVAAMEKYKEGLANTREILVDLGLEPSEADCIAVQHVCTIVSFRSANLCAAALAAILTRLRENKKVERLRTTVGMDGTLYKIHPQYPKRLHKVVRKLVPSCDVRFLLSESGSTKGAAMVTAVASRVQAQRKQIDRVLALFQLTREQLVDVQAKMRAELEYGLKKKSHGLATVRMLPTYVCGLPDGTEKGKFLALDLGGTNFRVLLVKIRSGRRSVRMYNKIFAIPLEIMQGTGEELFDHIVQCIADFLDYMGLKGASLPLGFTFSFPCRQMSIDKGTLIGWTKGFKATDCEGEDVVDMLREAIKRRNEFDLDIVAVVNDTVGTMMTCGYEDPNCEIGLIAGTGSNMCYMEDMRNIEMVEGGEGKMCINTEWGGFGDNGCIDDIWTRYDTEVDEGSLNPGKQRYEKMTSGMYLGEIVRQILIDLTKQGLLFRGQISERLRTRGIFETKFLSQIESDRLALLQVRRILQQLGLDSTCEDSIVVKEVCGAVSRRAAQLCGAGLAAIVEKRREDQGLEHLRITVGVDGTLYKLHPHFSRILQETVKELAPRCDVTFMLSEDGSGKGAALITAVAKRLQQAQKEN

[5] = target: T3, Polyadenylate-binding protein 1 (Homo sapiens, UniProt P11940); experiment: MLLE binding blockers, Cy5 peptide tracer – biochemical, fluorescence polarization, Cy5-PAM2 peptide, secondary, miRNA deadenylation inhibitor project, dose response (AID 602260); assay type: functional; details: read-out: IC50_Mean
T3 sequence (P11940 whole entry, the tested form may be a part): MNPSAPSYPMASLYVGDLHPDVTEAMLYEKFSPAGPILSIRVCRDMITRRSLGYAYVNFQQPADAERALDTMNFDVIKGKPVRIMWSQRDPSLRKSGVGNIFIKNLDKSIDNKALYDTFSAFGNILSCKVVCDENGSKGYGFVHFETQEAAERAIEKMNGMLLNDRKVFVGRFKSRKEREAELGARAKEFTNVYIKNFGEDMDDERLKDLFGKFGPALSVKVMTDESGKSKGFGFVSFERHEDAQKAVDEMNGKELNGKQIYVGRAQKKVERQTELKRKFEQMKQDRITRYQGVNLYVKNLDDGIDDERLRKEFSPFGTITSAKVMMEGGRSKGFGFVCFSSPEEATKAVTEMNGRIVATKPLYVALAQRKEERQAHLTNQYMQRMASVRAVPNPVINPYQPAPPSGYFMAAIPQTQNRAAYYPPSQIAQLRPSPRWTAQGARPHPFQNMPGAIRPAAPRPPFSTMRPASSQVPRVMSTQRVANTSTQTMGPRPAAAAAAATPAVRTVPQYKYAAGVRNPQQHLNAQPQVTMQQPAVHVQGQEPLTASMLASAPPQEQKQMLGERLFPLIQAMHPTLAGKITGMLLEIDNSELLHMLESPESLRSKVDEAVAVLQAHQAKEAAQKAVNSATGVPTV

[6] = target: T3, Polyadenylate-binding protein 1; experiment: MLLE domain peptide-binding blockers, IC50 – biochemical, fluorescence polarization, FITC-PAM2 peptide, dose response (AID 602259); assay type: functional; details: read-out: IC50_Mean
Protein Tat = Protein Tat (Human immunodeficiency virus type 1 group M subtype B (isolate HXB2)(HIV-1), UniProt P04608); assay type: functional;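 also: tat binding to TAR RNA read out by fluorescence polarization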
Sequence of Protein Tat (P04608 whole entry): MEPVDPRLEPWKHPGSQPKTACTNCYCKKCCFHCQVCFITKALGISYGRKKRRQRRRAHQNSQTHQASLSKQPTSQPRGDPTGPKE

Coagulation factor XII = target: T4, Coagulation factor XII (Homo sapiens, UniProt P00748); experiment: Factor XIIa Dose Response Confirmation from Single Well HTS. [Related pubchem assays (depositor defined):AID701]; assay type: functional
T4 sequence (P00748 whole entry): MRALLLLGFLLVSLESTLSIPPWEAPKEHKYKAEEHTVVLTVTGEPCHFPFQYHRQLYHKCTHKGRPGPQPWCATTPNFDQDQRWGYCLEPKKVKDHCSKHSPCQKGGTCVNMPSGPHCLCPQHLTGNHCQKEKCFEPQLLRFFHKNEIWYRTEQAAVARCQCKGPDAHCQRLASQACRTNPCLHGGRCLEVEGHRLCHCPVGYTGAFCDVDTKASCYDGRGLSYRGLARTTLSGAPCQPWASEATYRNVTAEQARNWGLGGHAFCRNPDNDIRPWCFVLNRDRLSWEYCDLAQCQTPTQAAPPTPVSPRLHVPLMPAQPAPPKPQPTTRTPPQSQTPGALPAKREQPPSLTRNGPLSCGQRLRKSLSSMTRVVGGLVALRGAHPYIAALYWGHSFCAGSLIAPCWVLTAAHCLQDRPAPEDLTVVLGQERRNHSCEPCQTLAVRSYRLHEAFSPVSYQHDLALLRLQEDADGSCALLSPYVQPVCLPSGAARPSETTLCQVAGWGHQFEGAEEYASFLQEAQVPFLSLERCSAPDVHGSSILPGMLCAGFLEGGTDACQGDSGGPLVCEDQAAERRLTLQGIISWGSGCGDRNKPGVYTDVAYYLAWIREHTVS

Genome polyprotein = Genome polyprotein (dengue virus type 2, UniProt P29990); experiment: flavivirus cap methylation enzyme inhibition – biochemical, confirmation dose response, primary screen (AID 588689); assay type: functional
Sequence of Genome polyprotein (P29990 2492-3391 limits assumed): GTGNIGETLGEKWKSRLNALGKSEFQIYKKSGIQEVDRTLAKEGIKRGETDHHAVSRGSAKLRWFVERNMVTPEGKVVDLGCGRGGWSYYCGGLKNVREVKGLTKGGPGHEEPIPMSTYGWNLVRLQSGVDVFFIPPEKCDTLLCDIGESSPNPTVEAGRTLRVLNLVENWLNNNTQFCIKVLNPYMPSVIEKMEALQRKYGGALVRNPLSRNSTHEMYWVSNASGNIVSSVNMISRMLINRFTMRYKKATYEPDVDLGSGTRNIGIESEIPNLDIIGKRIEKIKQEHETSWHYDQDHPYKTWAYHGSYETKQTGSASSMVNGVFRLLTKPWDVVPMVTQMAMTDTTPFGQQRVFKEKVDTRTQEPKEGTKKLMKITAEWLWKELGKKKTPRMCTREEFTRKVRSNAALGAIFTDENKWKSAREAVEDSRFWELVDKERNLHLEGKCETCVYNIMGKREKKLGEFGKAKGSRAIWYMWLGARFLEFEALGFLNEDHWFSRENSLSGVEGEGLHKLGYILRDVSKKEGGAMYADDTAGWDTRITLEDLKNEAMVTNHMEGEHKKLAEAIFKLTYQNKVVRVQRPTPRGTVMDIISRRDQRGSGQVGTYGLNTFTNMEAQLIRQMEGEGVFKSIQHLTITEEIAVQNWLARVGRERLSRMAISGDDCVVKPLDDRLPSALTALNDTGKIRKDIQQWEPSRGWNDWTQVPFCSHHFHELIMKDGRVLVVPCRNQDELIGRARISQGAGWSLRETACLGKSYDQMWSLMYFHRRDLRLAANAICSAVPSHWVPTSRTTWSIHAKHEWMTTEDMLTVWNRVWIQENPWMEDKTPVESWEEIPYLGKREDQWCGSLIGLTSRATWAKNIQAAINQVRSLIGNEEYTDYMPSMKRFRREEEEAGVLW

[7] = target: Sphingosine 1-phosphate receptor 5 (Homo sapiens, UniProt Q9H228); experiment: Late stage counterscreen assay for S1P4 antagonists: Fluorescence dose response cell-based screening assay for antagonists of the Sphingosine 1-Phosphate Receptor 5 (S1P5). [Related pubchem assays (depositor defined):AID1510, AID1524, AID1692, AID1853, AID2332, AID489009, AID489017]; assay type: functional
Sequence of Sphingosine 1-phosphate receptor 5 (Q9H228 whole entry): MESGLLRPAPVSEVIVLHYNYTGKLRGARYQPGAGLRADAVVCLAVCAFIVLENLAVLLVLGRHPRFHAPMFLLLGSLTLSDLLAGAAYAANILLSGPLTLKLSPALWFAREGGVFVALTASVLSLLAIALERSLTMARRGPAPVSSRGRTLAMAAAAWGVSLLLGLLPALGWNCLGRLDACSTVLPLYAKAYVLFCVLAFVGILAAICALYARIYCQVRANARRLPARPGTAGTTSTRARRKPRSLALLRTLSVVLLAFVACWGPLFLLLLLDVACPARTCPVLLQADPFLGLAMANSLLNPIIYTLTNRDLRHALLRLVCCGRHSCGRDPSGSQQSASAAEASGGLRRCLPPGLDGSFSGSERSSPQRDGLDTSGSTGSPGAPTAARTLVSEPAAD

[8] = target: Sphingosine 1-phosphate receptor 3 (Homo sapiens, UniProt Q99500); experiment: Late stage counterscreen assay for S1P4 antagonists: Fluorescence dose response cell-based screening assay for antagonists of the Sphingosine 1-Phosphate Receptor 3 (S1P3). [Related pubchem assays (depositor defined):AID1510, AID1524, AID1692, AID1853, AID2332, AID489009, AID489017]; assay type: functional
[9] = target: Sphingosine 1-phosphate receptor 1 (Homo sapiens, UniProt P21453); experiment: Late stage counterscreen assay for S1P4 antagonists: Fluorescence dose response cell-based screening assay for antagonists of the Sphingosine 1-Phosphate Receptor 1 (S1P1). [Related pubchem assays (depositor defined):AID1510, AID1524, AID1692, AID1853, AID2332, AID489009, AID489017]; assay type: functional
[10] = target: Sphingosine 1-phosphate receptor 2 (Homo sapiens, UniProt O95136); experiment: Late stage counterscreen assay for S1P4 antagonists: Fluorescence dose response cell-based screening assay for antagonists of the Sphingosine 1-Phosphate Receptor 2 (S1P2). [Related pubchem assays (depositor defined):AID1510, AID1524, AID1692, AID1853, AID2332, AID489009, AID489017]; assay type: functional
Sequence of Sphingosine 1-phosphate receptor 2 (O95136 whole entry): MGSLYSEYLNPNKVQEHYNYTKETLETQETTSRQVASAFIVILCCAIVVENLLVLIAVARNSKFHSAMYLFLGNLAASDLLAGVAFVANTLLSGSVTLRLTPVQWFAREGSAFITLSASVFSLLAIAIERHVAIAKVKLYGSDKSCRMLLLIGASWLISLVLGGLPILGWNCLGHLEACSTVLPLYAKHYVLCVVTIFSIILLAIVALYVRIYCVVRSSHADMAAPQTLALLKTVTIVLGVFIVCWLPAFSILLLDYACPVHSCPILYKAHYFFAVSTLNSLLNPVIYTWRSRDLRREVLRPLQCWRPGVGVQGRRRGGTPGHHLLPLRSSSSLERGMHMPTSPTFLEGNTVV

AC50 [2]: > 60 µM (inactive)
Structure (SMILES): COc1ccc(N2CCN(C(=O)CSc3nnc(-c4cccnc4)n3-c3ccccc3)CC2)cc1

IC50 (Coagulation factor XII): > 50 µM (inactive)
IC50 (Genome polyprotein): 18.7 µM (active)
Structure (SMILES): O=C1C(Cl)=C(N2CCOCC2)C(=O)N1c1ccccc1

The next lines start with the molecule.

Structure (SMILES): O=C(Nc1ccc(S(=O)(=O)Nc2ccccc2)cc1)c1ccc(CN2CCOCC2)cc1
EC50 (Ion channel NompC): > 29.9 µM (inactive)
EC50 (Mucolipin-3): > 29.9 µM (not active)
IC50 [1]: 48.1 µM (inactive)

Structure (SMILES): COc1ccc(N2C3=C(CC4=C2CCCC4=O)C(=O)CCC3)cc1
IC50 [3]: 0.372 µM (active)
IC50 [4]: 17.7 µM (active)
IC50 (Hexokinase HKDC1): 8.05 µM (active)
IC50 [5]: > 66 µM (inactive)
IC50 [6]: > 66 µM (inactive)
IC50 (Protein Tat): > 100 µM (active)

Structure (SMILES): Cc1cccc(Cl)c1NC(=O)c1ccc(-c2cc(Cl)ccc2Cl)o1
IC50 [7]: > 25 µM (inactive)
IC50 [8]: > 25 µM (inactive)
IC50 [9]: > 25 µM (inactive)
IC50 [10]: 9.5 µM (active)
